Consider 7 molecules from patent US20220242853A1, “MODIFIED CYANINE DYES AND CONJUGATES THEREOF” (BRACCO IMAGING S.P.A., priority 2019, published 2022).

Series [1] in a line: Optical properties: excitation/emission maxima and absolute fluorescence quantum yield. The series is classed as physicochemical. As for the experimental part: Analysis were performed with a Waters Atlantis dC18 5 μm, 4.6×150 mm column using a gradient of phase A CH3COONH4 10 mM and phase B acetonitrile. Measured mass/charge ratios are listed for each compound. A dual-beam UV-VIS spectrophotometer (Lambda 40, Perkin Elmer) was used to determine the absorbance (Abs) of the compounds of the invention. […] The measurements were performed using an excitation wavelength at maximum absorbance of different dyes, and the sample was excited with a […] Xenon Light Source. Detection was performed by photomultiplier tubes (PMT-NIR) cooled detector or by TBX-04 detector. Dye solutions were carefully prepared to have an absorbance lower than 0.1 (optical densities) to minimize re-absorption phenomena. The compounds of the invention have been characterized in terms of their optical properties in vitro in aqueous medium (i.e., water/PBS pH 7.4) and in a clinical chemistry control serum (Seronorm, Sero SA), mimicking the chemical composition and optical properties of human serum. All dye or dye-conjugate solutions were freshly prepared.

Series [2] deals with T1, human serum albumin (HSA) (Homo sapiens, UniProt P02768).
T1 construct: purchased Sigma Aldrich A9511
Description: Binding affinity to human serum albumin (absorbance peak shift or ultrafiltration method). To be noted: for Kd: phosphate buffer, 25° C., one of the two methods, read-out: HSA affinity (KA) (converted). As for the experimental part: Binding affinity to human serum albumin (HSA; Sigma Aldrich, A9511) was measured using two methods, according to the level of binding affinity of the compounds.
The first method, optimal for compounds which strongly interact with HSA, is based on the analysis of the absorbance spectrum peak shift after the incubation of the dye in solutions containing HSA. Briefly, the samples were incubated at a fixed concentration (1 μM) with HSA dilutions (1×10^−6-4×10^−4M), in phosphate buffer for 5 min in the spectrophotometer at 25° C. before measurements. The measure was performed at the maximum absorbance wavelength of the shifted peak.
The second method, optimal for compound with low affinity for HSA, is based on measuring the variation of the absorbance of solutions containing the dye and various concentrations of HSA after ultrafiltration. Briefly, each compound was incubated at a fixed concentration (2 μM) with HSA dilutions (1×10^−6-4×10^−4 M), in phosphate buffer. The samples were centrifuged (10,000 g for 30 min at 25° C.) in a Microcon device (10 kDa MWCO, Amicon Ultra-0.5 Centrifugal Filter Unit with Ultracel-10 membrane, Millipore) and the absorbance measurements of the filtrates were obtained with the spectrophotometer at the maximum absorbance wavelength of the fluorophore.
For both methods, the affinity constant (KA, M^−1) was calculated by fitting the raw data with the following formula:
wherein ΔA/b=Absorbance measured (b=1 cm) KRL=KA calculated by regression analysis (curve fitting) Δε·Rt calculated by regression analysis (curve fitting) [L]=Albumin concentration
In the first method, ΔA/b corresponds to the absorbance measured for each sample, whereas in the second method ΔA/b is obtained subtracting the absorbance of the control sample (dye without HSA) to the absorbance of each other sample.
However, the measurement of the affinity constant is more precise when the suitable method is used as a function of the affinity level of the compound.

The target in series [3] is T2, human recombinant integrin αvβ3 (Homo sapiens, UniProt P05106+P06756).
T2 construct: purchased R&D Systems
Description: Integrin receptor affinity ELISA (vitronectin-coated plates). The class given is binding. For orientation: An ELISA detects its analyte on a solid surface through an enzyme-linked reagent.

In series [4] the test system is WM-266-4 human melanoma cells. Description: Cell uptake by flow cytometry (FACS). The series is classed as cell-based. As for the experimental part: The human melanoma cell line WM-266-4 (ATCC, CRL-1676) was used as in vitro model to assess the cell uptake of representative integrin-binding Compounds 1 and 3, based on the high expression of the integrin receptors, particularly αvβ3, on the membrane of these cells (Capasso et al., PlosOne 2014).
Adherent cells at about 70% confluence were incubated with the compounds 1 or 3 (1 μM) for 2h at 37° C. (5% CO2) in presence of Dulbecco's Modified Eagle's Medium (DMEM) supplemented with 10% FBS, 2 mM glutamine, 100 IU/mL penicillin and 100 μg/mL streptomycin. After two washing steps with PBS, cells were detached using 0.1 mM EDTA in PBS, centrifuged and suspended in buffer (PBS, 0.5% BSA, 0.1% NaN3) for flow cytometry experiments. Fluorescence Activated Cell Sorting (FACS) was used to detect the fluorescence signal within the cells, as measure of cell uptake. Samples were excited with an Argon laser and the emission detected using a 670 nm longpass filter. Values of fluorescence intensity were obtained from the histogram statistic produced by the instrument software.
The residual internalization was calculated by considering the value of fluorescence intensity in absence of the competitor as 100%.
Furthermore, to assess the effect of biological fluids on the cell uptake, parallel experiments were performed incubating the cells with a compounds of the invention in presence of human serum from male AB plasma (Sigma Aldrich, H4522) or human albumin (Sigma Aldrich, A9511). The residual internalization was calculated by considering the value of fluorescence intensity in absence of the serum as 100%. Such uptake assessment also represents an indication of the percentage of compound which is sequestered by the plasma proteins, in particular albumin, when it diffuses through the vascular compartment before reaching the tissue of interest and the particular targeted receptor.
A general note: Flow cytometry measures light scatter and fluorescence of single cells or particles in a stream.

Series [5] in a line: Biodistribution and elimination by optical imaging after intravenous administration. The series is classed as in vivo, Balb/c nu/nu mice. The conditions noted are these: ex vivo, 24 hours after iv 1 nmol/mouse. As for the experimental part:
Biodistribution and elimination of the fluorescent agents of the invention was evaluated by optical imaging after intravenous administration in male Balb/c nu/nu mice, 6-10 weeks of age (Charles River Laboratories). Briefly, mice housed 4 per cage and fed with VRF1 (P) sterile diet (Special Diets Services Ltd) up to the end of the acclimation period (5 days). Then, AIN-76a rodent diet irradiated (Research Diets), a special diet that reduces auto-fluorescence, was used up to the end of the experiments. Imaging experiments were performed using the preclinical optical system IVIS Spectrum (Perkin Elmer).
In vivo imaging was performed under gas anesthesia (Sevofluorane 6-8% in oxygen). Animals were intravenously injected with the compounds and imaged longitudinally at 30 min, 1 h, 2 h, 3 h, 4 h, 6 h, and 24 h post-administration. Thus, animals were euthanized by anesthesia overdose, and the main tissues and organs of interest were excised for ex vivo optical imaging. Regions of interest (ROIs) were drawn on the tissues of interest for each fluorescence image at every time point to evaluate signal intensity (expressed as Average adiant Efficiency). The ratio between the fluorescence signal in the muscle (background tissue) and excretory organs (kidney, liver) was then calculated to assess the contrast. The tissue half-life was calculated by fitting the fluorescence signal decay in the muscle with a bi-exponential decay equation model using GraphPad Prism Software (version 5 for Windows).

Where only a bound is given, the exact number is not on record here.

Broadly, the IC50 is the point on the concentration scale where inhibition reaches its midpoint. For `CC(CC[N+]1=C(/C=C/C=C/C=C/C=C2/N(CCCCCC(=O)NCC3C[C@@H]4CC[C@H]5C(=O)N[C@@H](CCCNC(=N)N)C(=O)NCC(=O)N[C@@H](CC(=O)O)C(=O)N[C@H]3C(=O)N45)c3ccc(C(=O)NCC(O)C(O)C(O)C(O)CO)cc3C2(C)C)C(C)(C)c2cc(C(=O)NCC(O)C(O)C(O)C(O)CO)ccc21)S(=O)(=O)[O-]` (stereo partly drawn) [Compound 3], in series [1] (PBS pH 7.4), the “Max Em” value amounted to 785 nm, the “Max Ex” value came to 757 nm and the “Φ (absolute fluorescence quantum yield)” value is listed as 10.6%. Moreover, the “Φ (absolute fluorescence quantum yield)” value in series [1] (Seronorm control serum) came to 11.7%. Further, the Kd in series [2] is 238 µM. Besides, the IC50 in series [3] came to 0.00264 ± 0.00035 µM. Also, in series [4] (1 μM, 2h at 37° C., uptake without serum = 100%), the “Residual cell uptake in presence of human serum” value stood at 75%. Moreover, the “Residual uptake in the presence of c(RGDfK) as competitor” value in series [4] (100 μM c(RGDfK), uptake without competitor = 100%) came out at 15%. Also, in series [5], the “Kidney to muscle ratio” value is reported as 2.90 ± 0.55 and the “Liver to muscle ratio” value is 2.50 ± 0.32.
In the case of `CC(CC[N+]1=C(/C=C/C=C/C=C/C=C2/N(CCCCCC(=O)O)c3ccc(C(=O)NCC(O)C(O)C(O)C(O)CO)cc3C2(C)C)C(C)(C)c2cc(C(=O)NCC(O)C(O)C(O)C(O)CO)ccc21)S(=O)(=O)[O-]` (stereo not drawn) [Compound 4], in series [1] (PBS pH 7.4), the “Max Em” value is 785 nm, the “Max Ex” value is given as 755 nm and the “Φ (absolute fluorescence quantum yield)” value is given as 8.9%. The “Φ (absolute fluorescence quantum yield)” value in series [1] (Seronorm control serum) was 13.4%. Moreover, in series [2], the Kd was 196 µM.
For the molecule `CC1(C)C(/C=C/C=C/C=C2/N(CCCCCC(=O)O)c3ccc(C(=O)NCC(O)C(O)C(O)C(O)CO)cc3C2(C)C)=[N+](CCCCS(=O)(=O)[O-])c2ccc(C(=O)NCC(O)C(O)C(O)C(O)CO)cc21` (stereo not drawn) [Compound 6], in series [1] (PBS pH 7.4), the “Max Em” value amounted to 675 nm, the “Max Ex” value amounted to 656 nm and the “Φ (absolute fluorescence quantum yield)” value turned out to be 35.6%. Besides, the “Φ (absolute fluorescence quantum yield)” value in series [1] (Seronorm control serum) came out at 35.9%. Moreover, in series [2], the Kd is more than 1000 µM.
Consider `CC1(C)C(/C=C/C=C/C=C2/N(CCCCCC(=O)O)c3ccc(C(=O)NC(CO)(CO)CO)cc3C2(C)C)=[N+](CCCCS(=O)(=O)[O-])c2ccc(C(=O)NC(CO)(CO)CO)cc21` [Compound 7], for which, in series [1] (PBS pH 7.4), the “Max Em” value is recorded as 675 nm, the “Max Ex” value amounted to 655 nm and the “Φ (absolute fluorescence quantum yield)” value came out at 35.1%. In addition, the “Φ (absolute fluorescence quantum yield)” value in series [1] (Seronorm control serum) worked out at 35.1%. The Kd in series [2] was 289 µM.
For `CC1(C)C(/C=C/C=C/C=C/C=C2\N(CCCCS(=O)(=O)O)c3ccc4ccccc4c3C2(C)C)=[N+](CCCCS(=O)(=O)[O-])c2ccc3ccccc3c21` [ICG, Indocyanine Green, reference compound], in series [1] (PBS pH 7.4), the “Max Em” value came out at 810 nm, the “Max Ex” value is reported as 780 nm and the “Φ (absolute fluorescence quantum yield)” value turned out to be 1.5%. Besides, the “Φ (absolute fluorescence quantum yield)” value in series [1] (Seronorm control serum) is reported as 7.8%. Besides, the Kd in series [2] is 2.88 µM.
Consider `CN1/C(=C/C=C/C=C/C2=[N+](CCCCCC(=O)O)c3ccc(S(=O)(=O)[O-])cc3C2(C)C)C(C)(C)c2cc(S(=O)(=O)O)ccc21` [Sulfo-Cy5, reference compound], for which, in series [1] (PBS pH 7.4), the “Max Em” value was 665 nm, the “Max Ex” value is listed as 645 nm and the “Φ (absolute fluorescence quantum yield)” value is 27.0%. For the same molecule, in series [1] (Seronorm control serum), the “Φ (absolute fluorescence quantum yield)” value is on record as 35.6%.
Regarding “IRDye 800CW carboxylate [reference compound]”, the results for the “HSA KA” value in series [2] (first method (absorbance peak shift)) and in series [2] (second method (ultrafiltration)) were 215,000 M^−1 and 216,000 M^−1, respectively.
